A value given as a limit tells only on which side of the number the result lay.

The target in experiment [1] is Human immunodeficiency virus type 1 reverse transcriptase (Human immunodeficiency virus 1, UniProt Q72547).
Description: Inhibition of RNase H activity of recombinant HIV1 reverse transcriptase using poly(dC)-[3H]poly(rG) as substrate
Experiment [2] concerns the target Human immunodeficiency virus type 1 integrase (Human immunodeficiency virus 1, UniProt Q7ZJM1).
Description: Inhibition of strand transfer activity of recombinant HIV1 integrase using 5'-end-labeled 21-mer double-stranded DNA as substrate after 60 mins by electrochemiluminescent plate-based assay

Human immunodeficiency virus type 1 integrase, sequence (Q7ZJM1 whole entry): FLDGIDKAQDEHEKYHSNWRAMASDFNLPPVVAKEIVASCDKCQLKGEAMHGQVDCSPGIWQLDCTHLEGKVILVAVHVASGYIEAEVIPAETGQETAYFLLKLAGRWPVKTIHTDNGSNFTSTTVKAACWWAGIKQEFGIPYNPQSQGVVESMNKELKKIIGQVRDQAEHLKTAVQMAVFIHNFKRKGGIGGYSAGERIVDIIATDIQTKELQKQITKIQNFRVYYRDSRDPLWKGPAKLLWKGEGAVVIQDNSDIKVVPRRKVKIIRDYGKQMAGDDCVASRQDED

`O=C(/C=C/c1cccn1Cc1ccc(Cl)cc1)CC(=O)C(=O)O`: the IC50 came to 5 µM in experiment [1] and 4.1 µM in experiment [2].

In turn, `CCOC(=O)C(=O)CC(=O)/C=C/c1cccn1Cc1ccc(C)cc1` came in with an IC50 in experiment [1] of 7.3 µM.

For `CCOC(=O)C(=O)CC(=O)/C=C/c1cccn1Cc1ccc(F)cc1F`, the IC50 in experiment [1] was 19 µM; in experiment [2], 1 µM. With `O=C(/C=C/c1cccn1Cc1cc(F)cc(F)c1)CC(=O)C(=O)O`, the IC50 amounted to 14 µM in experiment [1] and 1.2 µM in experiment [2]. For `O=C(/C=C/c1cccn1Cc1ccc(Cl)cc1Cl)CC(=O)C(=O)O`, in that order: 7 µM and 4.9 µM. As for `O=C(/C=C/c1cccn1Cc1c(Cl)cccc1Cl)CC(=O)C(=O)O`, the IC50 turned out to be 28 µM in experiment [1] and 0.17 µM in experiment [2].

As to `O=C(/C=C/c1cccn1Cc1cc(Cl)cc(Cl)c1)CC(=O)C(=O)O`, the IC50 in experiment [1] came out at 30 µM; in experiment [2] it was 0.97 µM. As for `O=C(/C=C/c1cccn1Cc1cccc(Cl)c1)CC(=O)C(=O)O`, the IC50 in experiment [1] came to 9 µM; in experiment [2] it was 0.31 µM. For `N#Cc1ccccc1Cn1cccc1/C=C/C(=O)CC(=O)C(=O)O`, in that order: 6 µM and 6 µM. For `N#Cc1cccc(Cn2cccc2/C=C/C(=O)CC(=O)C(=O)O)c1`, in that order: 5 µM and 0.75 µM. Turning to `N#Cc1ccc(Cn2cccc2/C=C/C(=O)CC(=O)C(=O)O)cc1`, the results for the IC50 in experiment [1] and in experiment [2] were 6 µM and 1.7 µM, respectively. For `COc1ccccc1Cn1cccc1/C=C/C(=O)CC(=O)C(=O)O`, in that order: 16 µM and 0.53 µM.

For `CCOc1ccccc1Cn1cccc1/C=C/C(=O)CC(=O)C(=O)O`, the IC50 in experiment [1] was 64 µM; in experiment [2], 0.31 µM. For `Cc1cc(C)cc(Cn2cccc2/C=C/C(=O)CC(=O)C(=O)O)c1`, in that order: 16 µM and 1.6 µM. Taken in the same sequence, the figures for `O=C(/C=C/c1cccn1Cc1cccc(F)c1F)CC(=O)C(=O)O` were 6 µM and 0.059 µM. Taken in the same sequence, the figures for `O=C(/C=C/c1cccn1Cc1ccc(F)cc1F)CC(=O)C(=O)O` were 10 µM and 0.042 µM. As to `O=C(/C=C/c1cccn1Cc1cc(F)ccc1F)CC(=O)C(=O)O`, the IC50 in experiment [1] was 5 µM; in experiment [2], 0.052 µM. Taken in the same sequence, the figures for `O=C(/C=C/c1cccn1Cc1c(F)cccc1F)CC(=O)C(=O)O` were 50 µM and 0.15 µM. Taken in the same sequence, the figures for `O=C(/C=C/c1cccn1Cc1ccc(F)c(F)c1)CC(=O)C(=O)O` were 86 µM and 1.6 µM. For `CCOC(=O)C(=O)CC(=O)/C=C/c1cccn1Cc1cc(F)ccc1F`, in that order: 9 µM and 0.45 µM. For the compound `CCOC(=O)C(=O)CC(=O)/C=C/c1cccn1Cc1c(F)cccc1F`, the IC50 in experiment [1] came to 19 µM; in experiment [2], 4 µM. Taken in the same sequence, the figures for `CCOC(=O)C(=O)CC(=O)/C=C/c1cccn1Cc1cc(F)cc(F)c1` were 5 µM and 0.49 µM. For `CCOC(=O)C(=O)CC(=O)/C=C/c1cccn1Cc1ccc(Cl)cc1Cl`, in that order: 9 µM and more than 111 µM. Taken in the same sequence, the figures for `CCOC(=O)C(=O)CC(=O)/C=C/c1cccn1Cc1c(Cl)cccc1Cl` were 22 µM and 1.7 µM. In experiment [2], `CCOC(=O)C(=O)CC(=O)/C=C/c1cccn1Cc1cc(Cl)cc(Cl)c1` yielded an IC50 of 8 µM. For `Cc1ccccc1Cn1cccc1/C=C/C(=O)CC(=O)C(=O)O`, the IC50 in experiment [1] turned out to be 26 µM; in experiment [2], 0.17 µM. Taken in the same sequence, the figures for `Cc1cccc(Cn2cccc2/C=C/C(=O)CC(=O)C(=O)O)c1` were 4.6 µM and 1.3 µM. For `O=C(/C=C/c1cccn1Cc1ccccc1F)CC(=O)C(=O)O`, in that order: 6.4 µM and 0.98 µM. For `O=C(/C=C/c1cccn1Cc1cccc(F)c1)CC(=O)C(=O)O`, in that order: 14 µM and 0.92 µM.

`CCOC(=O)C(=O)CC(=O)/C=C/c1cccn1Cc1ccccc1F`: the IC50 in experiment [1] stood at 6.3 µM; in experiment [2], 1 µM. Take `CCOC(=O)C(=O)CC(=O)/C=C/c1cccn1Cc1cccc(F)c1`: the IC50 is 9 µM in experiment [1] and 11 µM in experiment [2]. Regarding `CCOC(=O)C(=O)CC(=O)/C=C/c1cccn1Cc1cccc(Cl)c1`, the IC50 in experiment [1] amounted to 19 µM; in experiment [2] it was 6 µM. For `CCOC(=O)C(=O)CC(=O)/C=C/c1cccn1Cc1ccccc1C#N`, in that order: 32 µM and 9 µM. For `CCOC(=O)C(=O)CC(=O)/C=C/c1cccn1Cc1cccc(C#N)c1`, in that order: 5 µM and 13 µM. On to `CCOC(=O)C(=O)CC(=O)/C=C/c1cccn1Cc1ccc(C#N)cc1`, for which the IC50 is 8 µM in experiment [1] and more than 111 µM in experiment [2]. For `CCOC(=O)C(=O)CC(=O)/C=C/c1cccn1Cc1ccccc1OC`, in that order: more than 100 µM and 23 µM.

Turning to `CCOC(=O)C(=O)CC(=O)/C=C/c1cccn1Cc1ccccc1OCC`, the half-inhibitory concentration (IC50) in experiment [1] was more than 100 µM; in experiment [2], 12 µM. Taken in the same sequence, the figures for `CCOC(=O)C(=O)CC(=O)/C=C/c1cccn1Cc1cc(C)cc(C)c1` were 6 µM and 19 µM. For `CCOC(=O)C(=O)CC(=O)/C=C/c1cccn1Cc1cccc(F)c1F`, in that order: 8 µM and 0.53 µM. For `CCOC(=O)C(=O)CC(=O)/C=C/c1cccn1Cc1ccccc1C`, in that order: 3 µM and 32 µM.

As to `CCOC(=O)C(=O)CC(=O)/C=C/c1cccn1Cc1cccc(C)c1`, the IC50 in experiment [1] was determined as 9.6 µM; in experiment [2], 8 µM. On to `CCOC(=O)C(=O)CC(=O)/C=C/c1cccn1Cc1ccc(Cl)cc1`, for which half-maximal inhibition in experiment [1] (IC50) required 8 µM. In the case of `COc1ccc(Cn2cccc2/C=C/C(=O)CC(=O)C(=O)O)cc1`, half-maximal inhibition in experiment [1] (IC50) was put at 3 µM.

Consider `O=C(/C=C/c1cccn1Cc1ccc(F)cc1)CC(=O)C(=O)O`, for which the IC50 was found to be 2.5 µM in experiment [1] and 0.026 µM in experiment [2].

Consider `O=C(/C=C/c1cccn1Cc1ccccc1)CC(=O)C(=O)O`, for which the IC50 in experiment [1] was 15 µM. The same measure, in the same setting: in the case of `Cc1ccc(Cn2cccc2/C=C/C(=O)CC(=O)C(=O)O)cc1` it was 17 µM. The same measure, in the same setting: the figure for `CCOC(=O)C(=O)CC(=O)/C=C/c1cccn1Cc1ccc(OC)cc1` is 6.7 µM.

Broadly, the IC50 is the concentration needed to halve the response being measured.

Values taken from ChEMBL document CHEMBL3085743, “6-(1-Benzyl-1H-pyrrol-2-yl)-2,4-dioxo-5-hexenoic acids as dual inhibitors of recombinant HIV-1 integrase and ribonuclease H, synthesized by a parallel synthesis approach” (J Med Chem, 2013).
